Patent US8999934B2, “Treatment of astrocytes-tumor cells inhibitors of endothelin receptors” (Board of Regents, The University of Texas System, priority 2009, dated 2015)
Where “and” joins values, the source holds several entries; their conditions need not be identical. Identical values can stand only once.

Columns and labels:
[1] = system: tumor cells co-cultured with astrocytes; experiment: In vitro cell based chemoresistance assay with endothelin receptor antagonists (overall statement); details: higher dose Bosentan
Source text: Using the in vitro cell based chemoresistance assay scheme described above, the Inventors tested two endothelin receptor antagonists having dual ETAR and ETBR affinity to assess the degree of astrocyte-mediated protection against the cytotoxic effects of the chemotherapy agent.

[2] = system: human PC14Br4 lung cancer cells; type: cell-based; details: for protection of tumor cells against the drug by co-culture with astrocytes: cultured alone vs with astrocytes, Adriamycin 200 ng/ml, vinblastine 3 ng/ml, vincristine 8 ng/ml, 5-FU 500 ng/ml, cisplatinum 2.4 μg/ml
Method: (§1) Astrocytes and NIH 3T3 fibroblasts were transfected with GFP genes as previously described (S5, S6). Target tumor cells, astrocytes, or 3T3 fibroblasts were harvested from a 60-70% confluent culture by a brief (2-minute) exposure to 0.25% trypsin in a 0.1% EDTA/PBS solution. The cells were dislodged by tapping the culture flasks briskly and resuspended in CMEM. The murine astrocytes, 3T3 fibroblasts, and tumor cells were plated alone or as co-culture at a tumor cell/astrocyte/3T3 cell ratio of 1:2 onto each of the 35-mm diameter well of the sterile 6-well tissue culture multi-well dish. The cells were allowed to adhere overnight in a humidified 37° C. incubator in an atmosphere of 6.4% carbon dioxide plus air. The cultures were then washed and incubated with fresh CMEM (negative control) or medium containing various concentrations of TAXOL® (Paclitaxel; NDC 0015-3476-30, Bristol-Myers Squibb, Princeton, N.J.) and other chemotherapeutic drugs (see below).
(§2) To determine whether direct contact between tumor cells and astrocytes (or fibroblasts serving as control) was a prerequisite to produce induction of resistance to chemotherapy, we performed the co-culture assay using a Transwell-Boyden chamber, i.e., plating the tumor cells in the chamber and the ImmortoAstrocytes (or fibroblasts) in the well. […]
In the second set of in vitro studies, we determined whether astrocyte-mediated induction of tumor cell resistance to chemotherapeutic drugs is transient or permanent. The human lung cancer PC14Br4 cells were co-cultured with either astrocytes or 3T3 fibroblasts in medium alone or medium containing 5 ng/ml paclitaxel. […] From parallel wells, we harvested surviving tumor cells and re-plated them on different monolayers of astrocytes or 3T3 cells. These co-cultures were of tumor cells first co-cultured with astrocytes and then with either astrocytes or 3T3 cells, or of tumor cells first cultured with 3T3 cells and then with either 3T3 cells or astrocytes. The second round of co-cultures then received media containing 5 ng/ml of paclitaxel. […]
(§3) The supernatant medium containing floating cells were collected from each dish into a 15-ml conical centrifuge tube. The attached cells were harvested by briefly exposing the cells to 0.25% trypsin in a solution containing 0.1% EDTA/PBS. Cells were combined with the corresponding supernatant medium. The samples were pelleted by centrifugation at 100 g for 5 minutes. The pellets were resuspended in 10 ml of HBSS and further pelleted at 100 g for 5 minutes. The samples were resuspended by vortex and the cells fixed in 1 ml of 1% paraformaldehyde for 10 minutes at room temperature. The samples were then transferred into polypropylene microcentrifuge tubes and the fixed cells were washed in 1 ml of PBS and then pelleted at 10,000 g for 1 minute. The pellets were resuspended by vortex and the cells fixed overnight in 1 ml of ethanol at −20° C. The cells were subsequently vortexed and pelleted by a microcentrifuge at 10,000 g for 1 minute. The samples were then vortexed and the pellets resuspended and stained in 300 of propidium iodide (50 μg/ml; Cat. P4864, Sigma) containing RNAse (15 μg/ml; Cat. A7973, Promega, Madison, Wis.) for 20-30 minutes at 37° C.

[3] = system: human MDA-MB-231 breast cancer cells; type: cell-based
Method: as §1, §2, §3

[4] = system: MDA231 breast cancer brain metastasis; experiment: Survival study, experimental human MDA231 breast cancer brain metastasis; type: in vivo, nude mice; details: 5×10^3 MDA231 cells, treatment from day 14, Paclitaxel 5 mg/kg i.p. once weekly, individual mice
Method: 5×10^3 MDA231 cells were injected according to the protocol in Experiment 10. Treatment began on day 14 after injection according to the protocol in Experiment 10. A Survival curve is drawn and the p-value derived to compare the statistical significance among treatment groups.
Control (vehicle): daily oral administrations and once weekly i.p. injections.
Paclitaxel (5 mg/kg): daily oral vehicle administrations and once weekly i.p. injection of Paclitaxel.
ACT064992 (10 mg/kg): daily oral ACT064992 administrations and once weekly i.p. injections of Paclitaxel.

[5] = system: MDA231 brain metastases; experiment: In vivo tumor cell apoptosis, TUNEL of brain slices; set-up: species or system nude mice; details: Paclitaxel 8 mg/kg i.p. once per week, ACT-064992 50 mg/kg orally once per day, 28 days
Method: Brain slices of mice from different treatment groups were analyzed by in situ Terminal deoxynucleotidyl transferase dUTP nick end labeling (TUNEL). Negoescu A, et al., J Histochem Cytochem. 1996 September; 44(9):959-68. […] FIG. 21A-C.

[6] = system: MDA231 brain metastases; experiment: In vivo tumor cell proliferation, CD31/Ki67 staining of brain slices; set-up: species or system nude mice; details: Paclitaxel 8 mg/kg i.p. once per week, ACT-064992 50 mg/kg orally once per day, 28 days
Source text: Representative brain slices from the four treatment groups were stained for CD31 (endothelial cell marker) and Ki67 (cell proliferation marker). […] FIGS. 20A, B, C and D, respectively.

[7] = system: ETAR; experiment: ETAR/phosphoserine immunostaining of brain slices; details: Paclitaxel 8 mg/kg i.p. once per week, ACT-064992 50 mg/kg orally once per day, 28 days
Method: Female nude mice (10-12 weeks old) were injected in the internal carotid artery with 10,000 viable MDA231 cells. Two weeks after the injection when brain metastases were established, the mice were randomized into 4 treatment groups (n=10): 1) Control (injected with vehicle solution); 2) Paclitaxel (8 mg/kg administered intraperitoneally once per week); 3) ACT-064992 (50 mg/kg administered orally once per day); and 4) Combination of ACT-064992 and Paclitaxel. All mice were euthanized after 28 days of treatment and autopsied. The brains were collected for histologic study and immunohistochemistry.
Brain slices of mice from the four treatment groups were immunostained for ETAR (red) and phosphoserine (green) colocalization produced orange-yellow color.

[8] = system: MDA231 brain metastases; experiment: In vivo tumor growth of MDA231 brain metastases (brain sections fixed and stained); set-up: species or system nude mice; details: Paclitaxel 8 mg/kg i.p. once per week, ACT-064992 50 mg/kg orally once per day, 28 days of treatment
Method: To further validate the efficacy of endothelin receptor antagonist therapy for existing brain metastasis, the Inventors performed exemplary in vivo experiments using mice. Nude mice were injected with 10,000 viable MDA231 cells mice by way of the internal carotid artery. […] The Inventors thus started treatments at this time point.
The treatment groups at two weeks post injection were: Control (vehicle) (FIG. […] 18B); ACT-064992 50 mg/kg, p.o. daily (FIG. […] 18D).
All mice were killed on day 28 of treatment. Brain sections were fixed and stained. Brain metastases were evaluated visually. Exemplary specimens are shown in FIG. 18A-D at the same magnifications.

[9] = system: pAKT; experiment: pAKT staining of MDA-MB-231 cells co-cultured with astrocytes and treated with Taxol; type: cell-based, human; details: MDA-MB-231 co-cultured with astrocytes; Taxol 15 ng/ml, 24 hours
Method: In the next set of studies, 10,000 GFP-labeled MDA-MB-231 cells were co-cultured with 20,000 astrocytes in chamber slides. Twenty-four hours later, the cultures were treated for 24 hours with Taxol (15 ng/ml) and then stained for phosphorylated pAKT (4% PFA fixation).

[10] = system: pAKT; experiment: Expression of survival factor pAKT in co-cultures of astrocytes and tumor cells; type: cell-based; details: ACT-064992 added to co-cultures of astrocytes and tumor cells
Method: (§4) ETR antagonists as shown above were ineffective as a single agent chemotherapy. This negative result made the dramatic effect seen with ETR antagonists as a component of combination therapies highly unexpected. In co-culture experiments, cell culture ratios were 1:2 tumor cell:astrocyte cell (50, 000:100,000), and treatments were using paclitaxel (TAXOL®) (6 ng/ml) and/or ACT-064992 (100 nM) for 48 hours (FIG. 15; *p<0.01). For the control experiments using MDA-MB-231 cells, the same astrocyte-mediated protection from paclitaxel occurred as in prior experiments. There were two surprising results from these combination experiments.

[11] = system: pMAPK; experiment: Expression of survival factor pMAPK in co-cultures of astrocytes and tumor cells; type: cell-based; details: ACT-064992 added to co-cultures of astrocytes and tumor cells
Method: as §4

[12] = system: ETAR/ETBR; details: requires ⅓ the dose; cited from earlier work
[13] = 100 nM, 48 hours, alone or with astrocytes or with 3T3 fibroblasts
[14] = tumor cell-astrocyte co-cultures 1:2, paclitaxel 6 ng/ml, ACT-064992 100 nM, 48 hours

COc1ccccc1Oc1c(NS(=O)(=O)c2ccc(C(C)(C)C)cc2)nc(-c2ncccn2)nc1OCCO [Bosentan]
results of Bosentan experiments compared with the ACT-064992 experiments [1]: analogous results

CC[C@]1(O)C[C@@H]2CN(CCc3c([nH]c4ccccc34)[C@@](C(=O)OC)(c3cc4c(cc3OC)N(C)[C@H]3[C@@](O)(C(=O)OC)[C@H](OC(C)=O)[C@]5(CC)C=CCN6CC[C@]43[C@@H]65)C2)C1 [vinblastine]
protection of tumor cells against the drug by co-culture with astrocytes ([2]; paclitaxel 5 ng/ml): significant (P<0.01) protection

COc1cccc2c1C(=O)c1c(O)c3c(c(O)c1C2=O)C[C@@](O)(C(=O)CO)C[C@@H]3O[C@H]1C[C@H](N)[C@H](O)[C@H](C)O1 [Adriamycin]
protection of tumor cells against the drug by co-culture with astrocytes ([2]; paclitaxel 5 ng/ml): significant (P<0.01) protection

CC(=O)O[C@H]1C(=O)[C@@]2(C)[C@H]([C@H](OC(=O)c3ccccc3)[C@]3(O)C[C@H](OC(=O)[C@H](O)[C@@H](NC(=O)c4ccccc4)c4ccccc4)C(C)=C1C3(C)C)[C@]1(OC(C)=O)CO[C@@H]1C[C@@H]2O [paclitaxel]
protection of tumor cells against the drug by co-culture with astrocytes ([2]; paclitaxel 5 ng/ml): significant (P<0.01) protection | reduction of relative apoptotic index of tumor cells by culturing with astrocytes (increased chemoresistance) ([2]; paclitaxel 5 ng/ml, 72 hours, co-culture with astrocytes (not 3T3 fibroblasts), mean±S.D., P<0.05): 61.8±6.7% | reduction of relative apoptotic index of tumor cells by culturing with astrocytes (increased chemoresistance) ([3]; paclitaxel 5 ng/ml, 72 hours, co-culture with astrocytes (not 3T3 fibroblasts), mean±S.D., P<0.01): 58.3 ± 8.9% | Day of death (after treatment) ([4]; oral vehicle daily): 49 day and 53 day and 60 day and 63 day and 74 day (2×) and 78 day | apoptotic (TUNEL) cells in brain [5]: few to no apoptotic cells | proliferating (Ki67) cells in brain [6]: a large number of proliferating cells | phosphorylation of ETAR in brain [7]: expressed phosphorylated ETAR | brain metastatic tumors (histology) [8]: well defined metastatic tumors | pAKT expression by tumor cells [9]: high levels of pAKT

N.N.[Cl][Pt][Cl] [cisplatinum]
protection of tumor cells against the drug by co-culture with astrocytes ([2]; paclitaxel 5 ng/ml): significant (P<0.01) protection

O=c1[nH]cc(F)c(=O)[nH]1 [5-FU]
protection of tumor cells against the drug by co-culture with astrocytes ([2]; paclitaxel 5 ng/ml): significant (P<0.01) protection

CC[C@]1(O)C[C@H]2CN(CCc3c([nH]c4ccccc34)[C@@](C(=O)OC)(c3cc4c(cc3OC)N(C=O)[C@H]3[C@@](O)(C(=O)OC)[C@H](OC(C)=O)[C@]5(CC)C=CCN6CC[C@]43[C@@H]65)C2)C1 [vincristine]
protection of tumor cells against the drug by co-culture with astrocytes ([2]; paclitaxel 5 ng/ml): significant (P<0.01) protection

CCCNS(=O)(=O)Nc1ncnc(OCCOc2ncc(Br)cn2)c1-c1ccc(Br)cc1 [ACT-064992, N-[5-(4-bromophenyl)-6-(2-(5-bromopyrimidin-2-yloxy)ethoxy)-pyrimidin-4-yl]-N′-propylaminosulfonamide]
cytotoxic effects (degree of apoptosis) [2, 13]: did not produce any measurable cytotoxic effects | cytotoxic effects (degree of apoptosis) [3, 13]: did not produce any measurable cytotoxic effects | effect on astrocyte-mediated protection from paclitaxel [3, 14]: negate the astrocyte-mediated protection from paclitaxel | efficacy of paclitaxel compared to control experiments without astrocytes (super-sensitization) [3, 14]: enhanced the efficacy of paclitaxel | expression of survival factor pAKT [10]: inhibited the expression | Day of death (after treatment) ([4]; ACT064992 10 mg/kg oral daily): 51 days and 63 days and 68 days and 75 days and 78 days and 82 days | apoptotic (TUNEL) cells in brain [5]: few to no apoptotic cells | proliferating (Ki67) cells in brain [6]: a large number of proliferating cells | phosphorylation of ETAR in brain [7]: prevented phosphorylation of the ETAR | expression of survival factor pMAPK [11]: inhibited the expression | brain metastatic tumors (histology) [8]: well defined metastatic tumors | pharmaceutical activity relative to Bosentan [12]: roughly three times more pharmaceutically active than Bosentan
